System: 695427-040-R-J1-PDC complex spheroid viability
Assay: Anticancer human tumor 695427-040-R-J1-PDC patient-derived colon adenocarcinoma cell line growth inhibition [POLQ]
Details: for IC50: curve of first compound; for viability, T/C: stronger effect = lower value
Summary of the method: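 PDC + HUVEC + MSC complex spheroids; POLQ inhibitors ± partner drugs; top conc. at/near clinical Cmax, else 10 microM (SN-38 1 microM), half-log dilutions; 37 degrees C, 5% CO2.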

[1] = second compound 0.0316 µM, first compound 0.0316 µM
[2] = second compound 0.0316 µM, first compound 0.1 µM
[3] = second compound 0.0316 µM, first compound 0.316 µM
[4] = second compound 0.0316 µM, first compound 1 µM
[5] = second compound 0.0316 µM, first compound 3.16 µM
[6] = second compound 0.0316 µM, first compound 10 µM
[7] = second compound 0.1 µM, first compound 0.0316 µM
[8] = second compound 0.1 µM, first compound 0.1 µM
[9] = second compound 0.1 µM, first compound 0.316 µM
[10] = second compound 0.1 µM, first compound 1 µM
[11] = second compound 0.1 µM, first compound 3.16 µM
[12] = second compound 0.1 µM, first compound 10 µM
[13] = second compound 0.316 µM, first compound 0.0316 µM
[14] = second compound 0.316 µM, first compound 0.1 µM
[15] = second compound 0.316 µM, first compound 0.316 µM
[16] = second compound 0.316 µM, first compound 1 µM
[17] = second compound 0.316 µM, first compound 3.16 µM
[18] = second compound 0.316 µM, first compound 10 µM
[19] = second compound 1 µM, first compound 0.0316 µM
[20] = second compound 1 µM, first compound 0.1 µM
[21] = second compound 1 µM, first compound 0.316 µM
[22] = second compound 1 µM, first compound 1 µM
[23] = second compound 1 µM, first compound 3.16 µM
[24] = second compound 1 µM, first compound 10 µM
[25] = second compound 3.16 µM, first compound 0.0316 µM
[26] = second compound 3.16 µM, first compound 0.1 µM
[27] = second compound 3.16 µM, first compound 0.316 µM
[28] = second compound 3.16 µM, first compound 1 µM
[29] = second compound 3.16 µM, first compound 3.16 µM
[30] = second compound 3.16 µM, first compound 10 µM
[31] = second compound 10 µM, first compound 0.0316 µM
[32] = second compound 10 µM, first compound 0.1 µM
[33] = second compound 10 µM, first compound 0.316 µM
[34] = second compound 10 µM, first compound 1 µM
[35] = second compound 10 µM, first compound 3.16 µM
[36] = second compound 10 µM, first compound 10 µM
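Also: spheroids exposed to compounds for seven days.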
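For viability, T/C in this document: 100% = DMSO vehicle control viability.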

Question: Which results are given for `CCc1cc2c(N3CCc4c(cc(Cn5ccnc5)cc4-c4cn(C)nc4C(F)(F)F)C3=O)ccnc2c(OC)n1` + Nc1ccc(C#CCN(C(=O)Cc2ncc(C(F)(F)F)cc2C(F)(F)F)c2ccc(F)cc2)nn1?
Answer: IC50 (second compound 0.0316 µM): > 10 µM; IC50 (second compound 0.1 µM): > 10 µM; IC50 (second compound 0.316 µM): > 10 µM; IC50 (second compound 1 µM): > 10 µM; IC50 (second compound 3.16 µM): > 10 µM; IC50 (second compound 10 µM): > 10 µM; viability, T/C [1]: 102%; viability, T/C [2]: 106%; viability, T/C [3]: 94.6%; viability, T/C [4]: 95.8%; viability, T/C [5]: 105%; viability, T/C [6]: 96%; viability, T/C [7]: 115%; viability, T/C [8]: 112%; viability, T/C [9]: 101%; viability, T/C [10]: 100%; viability, T/C [11]: 105%; viability, T/C [12]: 102%; viability, T/C [13]: 118%; viability, T/C [14]: 115%; viability, T/C [15]: 93%; viability, T/C [16]: 104%; viability, T/C [17]: 103%; viability, T/C [18]: 87.6%; viability, T/C [19]: 116%; viability, T/C [20]: 95.1%; viability, T/C [21]: 102%; viability, T/C [22]: 104%; viability, T/C [23]: 114%; viability, T/C [24]: 84.5%; viability, T/C [25]: 116%; viability, T/C [26]: 104%; viability, T/C [27]: 93.6%; viability, T/C [28]: 104%; viability, T/C [29]: 103%; viability, T/C [30]: 90%; viability, T/C [31]: 101%; viability, T/C [32]: 93.2%; viability, T/C [33]: 101%; viability, T/C [34]: 110%; viability, T/C [35]: 97.7%; viability, T/C [36]: 96.7%

Question: For `COc1cc2cc(C(=O)CCC(=O)O)sc2cc1OC` + Nc1ccc(C#CCN(C(=O)Cc2ncc(C(F)(F)F)cc2C(F)(F)F)c2ccc(F)cc2)nn1, which IC50 (second compound 0.0316 µM) is on record?
Answer: > 10 µM

Question: And the IC50 (second compound 0.1 µM)?
Answer: > 10 µM

Question: And the IC50 (second compound 0.316 µM)?
Answer: > 10 µM

Question: What about the IC50 (second compound 1 µM) of the same compound?
Answer: > 10 µM

Question: What about the IC50 (second compound 3.16 µM) of the same compound?
Answer: > 10 µM

Question: What about the IC50 (second compound 10 µM) of the same compound?
Answer: > 10 µM

Question: And the viability, T/C [1]?
Answer: 111%

Question: And the viability, T/C [2]?
Answer: 92%

Question: And the viability, T/C [3]?
Answer: 103%

Question: And the viability, T/C [4]?
Answer: 115%

Question: And the viability, T/C [5]?
Answer: 105%

Question: What about the viability, T/C [6] of the same compound?
Answer: 92.1%

Question: What about the viability, T/C [7] of the same compound?
Answer: 109%

Question: And the viability, T/C [8]?
Answer: 118%

Question: And the viability, T/C [9]?
Answer: 103%

Question: And the viability, T/C [10]?
Answer: 102%

Question: And the viability, T/C [11]?
Answer: 115%

Question: And the viability, T/C [12]?
Answer: 96.6%

Question: And the viability, T/C [13]?
Answer: 111%

Question: And the viability, T/C [14]?
Answer: 109%

Question: And the viability, T/C [15]?
Answer: 94.1%

Question: And the viability, T/C [16]?
Answer: 109%

Question: And the viability, T/C [17]?
Answer: 105%

Question: What about the viability, T/C [18] of the same compound?
Answer: 98.9%

Question: And the viability, T/C [19]?
Answer: 109%

Question: What about the viability, T/C [20] of the same compound?
Answer: 100%

Question: What about the viability, T/C [21] of the same compound?
Answer: 104%

Question: And the viability, T/C [22]?
Answer: 108%

Question: What about the viability, T/C [23] of the same compound?
Answer: 120%

Question: What about the viability, T/C [24] of the same compound?
Answer: 89.7%

Question: And the viability, T/C [25]?
Answer: 111%

Question: And the viability, T/C [26]?
Answer: 101%

Question: And the viability, T/C [27]?
Answer: 102%

Question: What about the viability, T/C [28] of the same compound?
Answer: 99.1%

Question: And the viability, T/C [29]?
Answer: 106%

Question: And the viability, T/C [30]?
Answer: 86.4%

Question: What about the viability, T/C [31] of the same compound?
Answer: 105%

Question: What about the viability, T/C [32] of the same compound?
Answer: 105%

Question: And the viability, T/C [33]?
Answer: 98.7%

Question: And the viability, T/C [34]?
Answer: 87.4%

Question: And the viability, T/C [35]?
Answer: 102%

Question: What about the viability, T/C [36] of the same compound?
Answer: 102%

Question: With `O=C(Nc1ccc(O)c(NS(=O)(=O)c2ccc(F)cc2)c1)c1ccc(-c2ccccc2)cc1` + Nc1ccc(C#CCN(C(=O)Cc2ncc(C(F)(F)F)cc2C(F)(F)F)c2ccc(F)cc2)nn1 as the compound, how does the IC50 (second compound 0.0316 µM) read?
Answer: > 10 µM

Question: What about the IC50 (second compound 0.1 µM) of the same compound?
Answer: > 10 µM

Question: What about the IC50 (second compound 0.316 µM) of the same compound?
Answer: > 10 µM

Question: What about the IC50 (second compound 1 µM) of the same compound?
Answer: > 10 µM

Question: And the IC50 (second compound 3.16 µM)?
Answer: > 10 µM

Question: And the IC50 (second compound 10 µM)?
Answer: > 10 µM

Question: And the viability, T/C [1]?
Answer: 108%

Question: What about the viability, T/C [2] of the same compound?
Answer: 107%

Question: What about the viability, T/C [3] of the same compound?
Answer: 105%

Question: What about the viability, T/C [4] of the same compound?
Answer: 107%

Question: And the viability, T/C [5]?
Answer: 109%

Question: What about the viability, T/C [6] of the same compound?
Answer: 91.9%

Question: And the viability, T/C [7]?
Answer: 112%

Question: What about the viability, T/C [8] of the same compound?
Answer: 105%

Question: What about the viability, T/C [9] of the same compound?
Answer: 92.8%

Question: And the viability, T/C [10]?
Answer: 104%

Question: And the viability, T/C [11]?
Answer: 104%

Question: And the viability, T/C [12]?
Answer: 97.3%

Question: What about the viability, T/C [13] of the same compound?
Answer: 106%

Question: What about the viability, T/C [14] of the same compound?
Answer: 106%

Question: And the viability, T/C [15]?
Answer: 99.8%

Question: What about the viability, T/C [16] of the same compound?
Answer: 101%

Question: What about the viability, T/C [17] of the same compound?
Answer: 108%

Question: What about the viability, T/C [18] of the same compound?
Answer: 87.4%

Question: And the viability, T/C [19]?
Answer: 112%

Question: And the viability, T/C [20]?
Answer: 97.4%

Question: And the viability, T/C [21]?
Answer: 99.1%

Question: And the viability, T/C [22]?
Answer: 105%

Question: What about the viability, T/C [23] of the same compound?
Answer: 119%

Question: And the viability, T/C [24]?
Answer: 80.2%

Question: What about the viability, T/C [25] of the same compound?
Answer: 108%

Question: What about the viability, T/C [26] of the same compound?
Answer: 104%

Question: And the viability, T/C [27]?
Answer: 99.2%

Question: And the viability, T/C [28]?
Answer: 109%

Question: What about the viability, T/C [29] of the same compound?
Answer: 112%

Question: And the viability, T/C [30]?
Answer: 112%

Question: And the viability, T/C [31]?
Answer: 99%

Question: What about the viability, T/C [32] of the same compound?
Answer: 94%

Question: What about the viability, T/C [33] of the same compound?
Answer: 104%

Question: What about the viability, T/C [34] of the same compound?
Answer: 94.7%

Question: What about the viability, T/C [35] of the same compound?
Answer: 93.5%

Question: And the viability, T/C [36]?
Answer: 88.1%

— PubChem BioAssay AID1963840 (Molecular Pharmacology Branch, DTP, NCI, 2024)
